This is an account of results in patent publication US12161722B2, “Bifunctional heterocyclic compound having BTK degradation function via ubiquitin proteasome pathway, and use thereof” (KOREA RESEARCH INSTITUTE OF CHEMICAL TECHNOLOGY, priority 2021, dated 2024).

The DC50 is the concentration giving 50% degradation.

Test [1] has as its target T1, C481S BTK protein (Homo sapiens, UniProt Q06187, C481S).
T1 construct: expressed in transfected cells; host or cells: 293T BTK MUT (C481S) cells
Briefly: BTK protein degradation assay (Western blotting), C481S BTK. It counts as cell-based. Particulars: concentration range accounting for 50% degradation of C481S BTK protein, 293T BTK MUT (C481S) cells. The method, then: TMD-8, RAMOS, or 293T BTK MUT (C481S) cells were treated with the synthesized compounds and measured for intracellular BTK protein levels by Western blotting. The protocol of the experiment using TMD-8 cells is as follows.
The 12-well plates were treated as follows. A 10 mM stock was 1/10 diluted in series with DMSO ([…]) to form final concentrations of 10, 1, 0.1, 0.01, 0.001, and 0.0001 mM. The compounds with such concentrations were applied to cells, followed by harvesting the cells 24 hours later. For a negative control, a 1/10 dilution of DMSO in the medium (3 mL DMSO+27 mL medium) was used.
The 1-mL cell culture in each well was passed many times through a pipette and then transferred into a 1.5-mL microtube before centrifugation (500 g, 5 min, 4° C.). The supernatant was discarded and the cell pellet was washed with PBS. After centrifugation (500 g, 5 min, 4° C.) again, the supernatant was discarded and the cell pellet was taken.
A lysis buffer was prepared as follows. RIPA buffer (Biosesang, RC2038-050-00)+0.5 mM PMSF (SIGMA, P7626)+1×Protease/Phosphatase Inhibitor (Cell signaling, 5872S) was added in an amount […] per well and left for 30 minutes on ice (vortexing at 0 and 30 minutes) before sonication (5 cycles of pulse for 10 seconds and rest for 30 seconds, 70% amplification). The supernatant obtained by centrifugation (15000 g, 15 min, 4° C.) was transferred into a new microtube. Cells in each well of 96-well plates were 1/2 diluted with the RIPA buffer and incubated at 37° C. for 30 minutes with […] of a 50:1 mixture of BCA reagents A and B in BCA Protein Assay Kit (iNtRON, 21071). After being cooled for 10 minutes, the 96-well plates were measured for absorbance at 562 nm on the BioTek, SYNERGY H1 microplate reader. Samples were prepared by protein quantification based on the absorbance measurements and then boiled at 70° C. for 10 minutes. The sample buffer used in the case was prepared by mixing a NuPAGE or a Bolt 4× sample buffer (Invitrogen) and its 10× sample reducing agent depending on the gel to be used, and protein dilution was made in a RIPI buffer.
The samples were loaded in the same amount into a NuPAGE or Bolt Bis-tris 4-12% gradient gel and allowed to run therein (200 V, 35 minutes). The separated proteins were transferred onto a […] NC membrane, using Trans-blot Turbo (BIO-RAD) (1.3 A constant, 25V limit, 15 minutes). The membrane was blocked at room temperature for 1 hour with skim milk or Intercept Blocking Buffer (LI-COR, 927-60001):0.1% TBST=1:1. The membrane was incubated with Anti BTK Rabbit (1:1,000 in 5% skim milk/0.2% TBST, size: 77 kDa, Cell signaling Technology) at 4° C. overnight O/N or at room temperature for 2 hours and with Anti GAPDH Rabbit (1:10,000 in 5% BSA/0.2% TBST, size: 36 kDa, GENETEX) and Anti β-actin mouse (1:10,000 in 5% BSA/0.2% TBST, RT, size: 43 kDa, GENETEX) at room temperature for 1 or 3 hours. Then, the membrane was washed three times with 0.5% TBST for 5 minutes each time before incubation with the second antibody Anti-Rabbit IgG (1:5,000 in 5% Skim milk/TBST, CST), IRDye® 800CW Goat anti-Rabbit IgG Secondary Antibody (1:10,000 in 5% skim/TBST, RT 45 min), or IRDye® 680RD Goat anti-Mouse IgG Secondary Antibody (1:10,000 in 5% skim/TBST, RT 45 min) for 45 minutes at room temperature in a rocker. The membrane was washed five times with 0.5% TBST for 5 minutes in each time, followed by detection with LI-COR, Odyssey. In this regard, the detection proceeded, as it was, for house-keeping genes while using SuperSignal West Pico PLUS Chemiluminescent Substrate or SuperSignal West femto Maximum Sensitivity Substrate for BTK detection.
According to the concentration ranges of compounds accounting for 50% degradation of WT BTK protein and C481S BTK protein, the activities are expressed as +++(0.0001-0.01 μM), ++(0.01-1 μM), +(1-10 μM), −(>10 μM), and NT (not tested). […]

In test [2] the target is T2, WT BTK protein (Homo sapiens, UniProt Q06187).
T2 construct: measured for intracellular BTK protein levels by Western blotting; endogenous in cells; host or cells: TMD-8 or RAMOS cells
The experiment in a line: BTK protein degradation assay (Western blotting), WT BTK. Type of test: cell-based. Particulars: concentration range accounting for 50% degradation of WT BTK protein, TMD-8 or RAMOS cells, 24 hours. A digest of the protocol:
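BTK levels were read by Western blotting (GAPDH and β-actin normalisers) in RIPA lysates of TMD-8 cells exposed to compounds for 24 h at 1×10^6 cells/mL. Results scored in ranges of the concentration producing 50% loss of WT BTK.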
A general note: In western blotting, separated proteins are transferred to a membrane and probed.

Some results are limits rather than exact numbers.

T2 sequence (Q06187 whole entry): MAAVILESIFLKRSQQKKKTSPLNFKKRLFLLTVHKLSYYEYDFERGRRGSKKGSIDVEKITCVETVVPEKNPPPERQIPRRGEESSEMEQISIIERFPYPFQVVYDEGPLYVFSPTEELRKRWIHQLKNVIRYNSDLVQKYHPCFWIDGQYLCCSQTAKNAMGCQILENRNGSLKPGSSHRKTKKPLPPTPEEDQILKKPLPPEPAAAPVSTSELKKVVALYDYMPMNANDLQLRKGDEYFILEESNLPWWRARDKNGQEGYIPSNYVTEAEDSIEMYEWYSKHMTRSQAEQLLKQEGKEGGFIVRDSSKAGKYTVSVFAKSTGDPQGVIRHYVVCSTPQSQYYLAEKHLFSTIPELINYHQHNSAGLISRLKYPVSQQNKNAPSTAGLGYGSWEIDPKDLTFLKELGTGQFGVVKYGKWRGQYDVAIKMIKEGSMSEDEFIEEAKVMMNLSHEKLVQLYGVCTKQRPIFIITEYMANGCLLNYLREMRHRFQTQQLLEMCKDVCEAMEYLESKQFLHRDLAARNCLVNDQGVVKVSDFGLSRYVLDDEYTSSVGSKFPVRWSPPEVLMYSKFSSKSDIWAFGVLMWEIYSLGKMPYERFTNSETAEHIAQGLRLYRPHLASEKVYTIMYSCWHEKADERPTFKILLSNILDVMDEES
T1 sequence (Q06187 whole entry C481S): as the sequence (Q06187 whole entry) above, with C481S counted along it

For `Cc1cccc(C)c1Nc1nn(C)c2nc(Nc3ccc4c(c3)CN(CC3CCN(C(=O)C5CCN(c6ccc7c(c6)C(=O)N(C6CCC(=O)NC6=O)C7=O)CC5)CC3)CC4)ncc12` (centres unmarked) [Compound 28, 5-(4-(4-((7-((3-((2,6-Dimethylphenyl)amino)-1-methyl-1H-pyrazolo[3,4-d]pyrimidin-6-yl)amino)-3,4-dihydroisoquinolin-2 (1H)-yl)methyl)piperidine-1-carbonyl)piperidin-1-yl)-2-(2,6-dioxopiperidin-3-yl)isoindoline-1,3-dione], the DC50 in test [1] and in test [2] was 0.1 to 10 nM in each case.
Consider `Cc1cccc(C)c1Nc1nn(C)c2nc(Nc3ccc4c(c3)CN(CCOCCNC(=O)C3CCN(c5cccc6c5C(=O)N(C5CCC(=O)NC5=O)C6=O)CC3)CC4)ncc12` (centres unmarked) [Compound 24, N-(2-(2-(7-((3-((2,6-Dimethylphenyl)amino)-1-methyl-1H-pyrazolo[3,4-d]pyrimidin-6-yl)amino)-3,4-dihydroisoquinolin-2 (1H)-yl)ethoxy)ethyl)-1-(2-(2,6-dioxopiperidin-3-yl)-1,3-dioxoisoindolin-4-yl)piperidine-4-carboxamide], for which the DC50 in test [1] was in the range of 1000 to 10000 nM; in test [2], 0.1 to 10 nM.
For `Cc1cccc(C)c1Nc1nn(C)c2nc(Nc3ccc4c(c3)CN(C(=O)[C@H]3CCCN3C(=O)CN3CCN(c5ccc6c(c5)C(=O)N(C5CCC(=O)NC5=O)C6=O)CC3)CC4)ncc12` (stereo partly drawn) [Compound 32, 5-(4-(2-((R)-2-(7-((3-((2,6-Dimethylphenyl)amino)-1-methyl-1H-pyrazolo[3,4-d]pyrimidin-6-yl)amino)-1,2,3,4-tetrahydroisoquinoline-2-carbonyl)pyrrolidin-1-yl)-2-oxoethyl)piperazin-1-yl)-2-(2,6-dioxopiperidin-3-yl)isoindoline-1,3-dione], in that order: 1000 to 10000 nM and 10 to 1000 nM.
On the same counts, the results for `Cc1cccc(C)c1Nc1nn(C)c2nc(Nc3ccc4c(c3)CN(C(=O)C3CCN(c5cccc6nnn(C7CCC(=O)NC7=O)c(=O)c56)CC3)CC4)ncc12` (centres unmarked) [Compound 59] are 1000 to 10000 nM and 0.1 to 10 nM.
With `Cc1cccc(C)c1Nc1nn(C)c2nc(Nc3ccc4c(c3)CN(C(=O)C3CCN(C(=O)CNc5ccc6nnn(C7CCC(=O)NC7=O)c(=O)c6c5)CC3)CC4)ncc12` (centres unmarked) [Compound 57], the figures for the DC50 in test [1] and in test [2] were 10 to 1000 nM and 0.1 to 10 nM, respectively.
Regarding `Cc1cccc(C)c1Nc1nn(C)c2nc(Nc3ccc4c(c3)CN(C(=O)CCOCCOCCOCCOCCNc3cccc5c3C(=O)N(C3CCC(=O)NC3=O)C5=O)CC4)ncc12` (centres unmarked) [Compound 14], the figures for the 50% degradation concentration (DC50) in test [1] and in test [2] were above 10000 nM and 0.1 to 10 nM, respectively.
For the compound `Cc1cccc(C)c1Nc1nn(C)c2nc(Nc3ccc4c(c3)CN(C(=O)C3CCN(C(=O)COc5ccc6nnn(C7CCC(=O)NC7=O)c(=O)c6c5)CC3)CC4)ncc12` (centres unmarked) [Compound 55, 3-(6-(2-(4-(7-((3-((2,6-Dimethylphenyl)amino)-1-methyl-1H-pyrazolo[3,4-d]pyrimidin-6-yl)amino)-1,2,3,4-tetrahydroisoquinoline-2-carbonyl)piperidin-1-yl)-2-oxoethoxy)-4-oxobenzo[d][1,2,3]triazin-3 (4H)-yl)piperidin-2,6-one], the DC50 was 10 to 1000 nM in test [1] and 0.1 to 10 nM in test [2].
On the same counts, the results for `Cc1cccc(C)c1Nc1nn(C)c2nc(Nc3ccc4c(c3)CN(C(=O)[C@H]3CCCN3C(=O)C3CCN(c5ccc6c(c5)C(=O)N(C5CCC(=O)NC5=O)C6=O)CC3)CC4)ncc12` (stereo partly drawn) [Compound 26, 5-(4-((R)-2-(7-((3-((2,6-Dimethylphenyl)amino)-1-methyl-1H-pyrazolo[3,4-d]pyrimidin-6-yl)amino)-1,2,3,4-tetrahydroisoquinoline-2-carbonyl)pyrrolidine-1-carbonyl)piperidin-1-yl)-2-(2,6-dioxopiperidin-3-yl)isoindoline-1,3-dione] are 1000 to 10000 nM and 0.1 to 10 nM.
On the same counts, the results for `Cc1cccc(C)c1Nc1nn(C)c2nc(Nc3ccc4c(c3)CN(C(=O)COCCOCCNc3cccc5c3C(=O)N(C3CCC(=O)NC3=O)C5=O)CC4)ncc12` (centres unmarked) [Compound 3, 4-((2-(2-(2-(7-((3-((2,6-Dimethylphenyl)amino)-1-methyl-1H-pyrazolo[3,4-d]pyrimidin-6-yl)amino)-3,4-dihydroisoquinolin-2 (1H)-yl)-2-oxoethoxy)ethoxy)ethyl)amino)-2-(2,6-dioxopiperidin-3-yl)isoindoline-1,3-dione] are 1000 to 10000 nM and 0.1 to 10 nM.
For `Cc1cccc(C)c1Nc1nn(C)c2nc(Nc3ccc4c(c3)CN(CC3CCN(C(=O)C5CCN(c6ccc7nnn(C8CCC(=O)NC8=O)c(=O)c7c6)CC5)CC3)CC4)ncc12` (centres unmarked) [Compound 37, 3-(6-(4-(4-((7-((3-((2,6-Dimethylphenyl)amino)-1-methyl-1H-pyrazolo[3,4-d]pyrimidin-6-yl)amino)-3,4-dihydroisoquinolin-2 (1H)-yl)methyl)piperidine-1-carbonyl)piperidin-1-yl)-4-oxobenzo[d][1,2,3]triazin-3 (4H)-yl)piperidin-2,6-one], in that order: 0.1 to 10 nM and 0.1 to 10 nM.
In the case of `Cc1cccc(C)c1Nc1nn(C)c2nc(Nc3ccc4c(c3)CN(CC3CCN(c5ccc6c(c5)C(=O)N(C5CCC(=O)NC5=O)C6=O)CC3)CC4)ncc12` (centres unmarked) [Compound 29, 5-(4-((7-((3-((2,6-Dimethylphenyl)amino)-1-methyl-1H-pyrazolo[3,4-d]pyrimidin-6-yl)amino)-3,4-dihydroisoquinolin-2 (1H)-yl)methyl)piperidin-1-yl)-2-(2,6-dioxopiperidin-3-yl)isoindoline-1,3-dione], the DC50 in test [1] lay within 10 to 1000 nM; in test [2], 0.1 to 10 nM.
On the same counts, the results for `Cc1cccc(C)c1Nc1nn(C)c2nc(Nc3ccc4c(c3)CN(C(=O)COCCOCCOCCOCCNC(=O)COc3ccc5c(c3)C(=O)N(C3CCC(=O)NC3=O)C5=O)CC4)ncc12` (centres unmarked) [Compound 9, N-(14-(7-((3-((2,6-Dimethylphenyl)amino)-1-methyl-1H-pyrazolo[3,4-d]pyrimidin-6-yl)amino)-3,4-dihydroisoquinolin-2 (1H)-yl)-14-oxo-3,6,9,12-tetraoxatetradecyl)-2-((2-(2,6-dioxopiperidin-3-yl)-1,3-dioxoisoindolin-5-yl)oxy)acetamide] are above 10000 nM and 10 to 1000 nM.
For `Cc1cccc(C)c1Nc1nn(C)c2nc(Nc3ccc4c(c3)CN(CCOCCOCC(=O)Nc3ccc5c(c3)C(=O)N(C3CCC(=O)NC3=O)C5=O)CC4)ncc12` (centres unmarked) [Compound 23, 2-(2-(2-(7-((3-((2,6-Dimethylphenyl)amino)-1-methyl-1H-pyrazolo[3,4-d]pyrimidin-6-yl)amino)-3,4-dihydroisoquinolin-2 (1H)-yl)ethoxy)ethoxy)-N-(2-(2,6-dioxopiperidin-3-yl)-1,3-dioxoisoindolin-5-yl)acetamide], in that order: 1000 to 10000 nM and 0.1 to 10 nM.
